Assay results taken from PubChem BioAssay (NCI).
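Five compound concentrations were applied to cells in 96-well plates for 48 hours; endpoints were derived by simple linear interpolation of the resulting dose-response curve. Here, GI50 denotes the concentration required for 50% inhibition of growth. TGI: concentration producing complete growth inhibition.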

Experiments:
Assay in all cases: NCI-60 cell line screen, 48 h
SR leukemia = test system: SR leukemia
RPMI-8226 leukemia = test system: RPMI-8226 leukemia
SF-268 CNS = test system: SF-268 CNS
MALME-3M melanoma = test system: MALME-3M melanoma
SK-OV-3 ovarian = test system: SK-OV-3 ovarian
M14 melanoma = test system: M14 melanoma
NCI-H226 lung = test system: NCI-H226 lung
UACC-257 melanoma = test system: UACC-257 melanoma
U251 CNS = test system: U251 CNS
MCF7 breast = test system: MCF7 breast

SMILES	TGI (SR leukemia)	TGI (RPMI-8226 leukemia)	TGI (SF-268 CNS)	TGI (MALME-3M melanoma)	TGI (SK-OV-3 ovarian)	TGI (M14 melanoma)	TGI (NCI-H226 lung)	TGI (UACC-257 melanoma)	TGI (U251 CNS)	TGI (MCF7 breast)	GI50 (UACC-257 melanoma)	GI50 (RPMI-8226 leukemia)	GI50 (SF-268 CNS)	GI50 (M14 melanoma)	GI50 (NCI-H226 lung)	GI50 (MCF7 breast)
Cn1nc2ccc3nccc(NCCNCCCl)c3c2n1	> 100 µM	> 100 µM	> 100 µM	> 100 µM	> 100 µM	> 100 µM	> 100 µM	–	–	–	–	–	–	–	–	–
N/C(=N\N=C/c1cc(Cl)cc(Cl)c1O)NO	–	39.9 µM	> 100 µM	24 µM	24.2 µM	–	9.82 µM	29.3 µM	> 100 µM	10.3 µM	–	–	–	–	–	–
CCCCCCCCC[C@@H]1C[C@@H]2CCC3C(C(=O)OCCCCNC(=O)OCc4ccccc4)=C(C)NC(=N1)N32 (stereo partly specified)	–	4.44 µM	6.66 µM	–	8.74 µM	6.97 µM	11.6 µM	12.2 µM	10.3 µM	4.72 µM	–	–	–	–	–	–
COc1cc(C2c3cc4c(cc3[C@@H](Nc3ccc(N5CCOCC5)cc3)C3COC(=O)[C@H]23)OCO4)cc(OC)c1O (stereo partly specified)	–	12.6 µM	14.2 µM	15 µM	5.38 µM	–	2.9 µM	–	1.89 µM	14.7 µM	–	–	–	–	–	–
Cc1cc(O)c(/C=N/C(=O)NN)c(=O)o1	–	–	> 100 µM	–	> 100 µM	> 100 µM	–	> 100 µM	> 100 µM	> 100 µM	–	–	–	–	–	–
CCOC(=O)C1CCn2c(nc3c(=O)n(C)c(=O)n(C)c32)S1 (stereo unspecified)	> 100 µM	> 100 µM	> 100 µM	> 100 µM	> 100 µM	> 100 µM	> 100 µM	> 100 µM	> 100 µM	–	–	–	–	–	–	–
CCOC(=O)CCc1c(C)c2c(O)cc(O)cc2oc1=O	–	> 100 µM	> 100 µM	> 100 µM	> 100 µM	–	> 100 µM	> 100 µM	> 100 µM	> 100 µM	–	–	–	–	–	–
CN(C)S(=O)(=O)c1cccc(-c2nc3sc4c(c3c(=O)[nH]2)CCCC4)c1	–	> 100 µM	> 100 µM	–	–	> 100 µM	> 100 µM	> 100 µM	–	> 100 µM	> 100 µM	> 100 µM	3.24 µM	> 100 µM	2.38 µM	> 100 µM
CCCCCCCCCCCCCCCCCCNC(=S)/N=C/c1c(O)cc(C)oc1=O	–	–	–	–	87.4 µM	41.9 µM	> 100 µM	65.3 µM	> 100 µM	> 100 µM	–	–	–	–	–	–
CCOC(=O)CC(=Nc1cc(C)on1)N(CC)CC	> 100 µM	> 100 µM	> 100 µM	> 100 µM	> 100 µM	> 100 µM	> 100 µM	–	> 100 µM	–	–	–	–	–	–	–
O=C(NN1C(=O)C(Cl)C1c1ccc([N+](=O)[O-])cc1)c1ccccc1O (stereo unspecified)	> 100 µM	> 100 µM	> 100 µM	> 100 µM	> 100 µM	> 100 µM	–	> 100 µM	> 100 µM	–	–	–	–	–	–	–
Cc1ccc(C(=O)NC(C)C)cc1N=NN(C)C	–	–	> 100 µM	–	–	> 100 µM	–	> 100 µM	> 100 µM	–	–	–	–	–	–	–
COc1ccc2c(c1)Cc1c-2[nH]c2cc3c(cc2c1=O)OCO3	–	35.8 µM	> 100 µM	42.8 µM	95.8 µM	51.2 µM	94.3 µM	–	23.5 µM	–	–	–	–	–	–	–
CC1(C)C(C(=O)OC(C#N)c2cccc(OCC(=O)OCc3ccccc3)c2)C1(C)C (stereo unspecified)	–	–	> 100 µM	> 100 µM	> 100 µM	> 100 µM	> 100 µM	> 100 µM	> 100 µM	> 100 µM	–	–	–	–	–	–
O=S(=O)(Nc1nc(-c2cc(O)c(O)c(O)c2)cs1)c1ccc(Cl)cc1Cl	–	40.8 µM	46.2 µM	> 100 µM	> 100 µM	50.6 µM	> 100 µM	67.7 µM	37.3 µM	36.1 µM	–	–	–	–	–	–
C/C(=N\Nc1ncnc2ccccc12)c1ccccn1	–	1.62 µM	7.2 µM	1.58 µM	4.03 µM	33 µM	1.13 µM	8.65 µM	34.4 µM	25.1 µM	–	–	–	–	–	–
FC(F)(F)c1nc2cc(SSc3cc4nc(C(F)(F)F)[nH]c4cc3Cl)c(Cl)cc2[nH]1	–	> 100 µM	> 100 µM	> 100 µM	> 100 µM	> 100 µM	> 100 µM	> 100 µM	> 100 µM	> 100 µM	–	–	–	–	–	–
N#CCCCCC12C3C(=O)N(c4ccccc4)C(=O)C3ON1O[C@@H]1C(=O)N(c3ccccc3)C(=O)[C@@H]12 (stereo partly specified)	–	–	> 100 µM	> 100 µM	> 100 µM	> 100 µM	> 100 µM	> 100 µM	> 100 µM	> 100 µM	–	–	–	–	–	–
